Measured values taken from patent US20120252730A1, “PLATELET AGGREGATION INHIBITORS” (UNIVERSITY OF CHICAGO, priority 2009, published 2012).
Ends that are not written are not given here.

Key:
HT1080 cells = assay: Ac-GXGDSC peptide array cell adhesion, HT1080 cells; type: cell-based
BHK 21 cells = assay: Ac-GXGDSC peptide array cell adhesion, BHK 21 cells; type: cell-based
CHO-K1 cells = assay: Ac-GXGDSC peptide array cell adhesion, CHO K1 cells; type: cell-based
Procedure: Cysteine-terminated peptides were immobilized onto maleimide-presenting SAMs by adding 40 μL of 1 mM peptide solution to the biochip and incubating at 37° C. for 1 hour. Substrates were rinsed with DIUF water and ethanol and dried under a stream of nitrogen. αIIbβ3 CHO K1 cells were detached from culture plates with 1 mM EGTA/2 mM EDTA in PBS (phosphate-buffered saline), rinsed with serum-free F-12K medium, centrifuged and resuspended in serum-free F-12K medium supplemented with cRGDFG (SEQ ID NO: 12) (300 μM) and 1× penicillin/streptomycin. After 15-minute of incubation, cells (200,000/mL) were added to substrates in 24-well culture plates. After 2 hour incubation at 37° C. and 5% CO2, media was exchanged for F-12K medium supplemented with 10% FBS, 1× penicillin/streptomycin and cRGDFG (SEQ ID NO: 12) (300 μM). After 2 hours, the substrates were washed gently with warm PBS, and adherent cells were immediately fixed with 4% formaldehyde for 30 minutes, visualized with a 20× objective of a Zeiss Axiovert 200 inverted microscope, and photographed. […] The number of adherent cells per field of view was counted using Image J software. Cells were counted in at least three fields for each circle, and each experiment was repeated 3 times. […]

αIIbβ3 CHO K1 cells [1] = assay: Ac-GXGDSC peptide array cell adhesion, αIIbβ3 CHO K1 cells; type: cell-based, human; settings: 0.5% peptide spots; 300 μM cRGDFG
Procedure: (§1) Cysteine-terminated peptides were immobilized onto maleimide-presenting SAMs by adding 40 μL of 1 mM peptide solution to the biochip and incubating at 37° C. for 1 hour. Substrates were rinsed with DIUF water and ethanol and dried under a stream of nitrogen. αIIbβ3 CHO K1 cells were detached from culture plates with 1 mM EGTA/2 mM EDTA in PBS (phosphate-buffered saline), rinsed with serum-free F-12K medium, centrifuged and resuspended in serum-free F-12K medium supplemented with cRGDFG (SEQ ID NO: 12) (300 μM) and 1× penicillin/streptomycin. After 15-minute of incubation, cells (200,000/mL) were added to substrates in 24-well culture plates. After 2 hour incubation at 37° C. and 5% CO2, media was exchanged for F-12K medium supplemented with 10% FBS, 1× penicillin/streptomycin and cRGDFG (SEQ ID NO: 12) (300 μM). After 2 hours, the substrates were washed gently with warm PBS, and adherent cells were immediately fixed with 4% formaldehyde for 30 minutes, visualized with a 20× objective of a Zeiss Axiovert 200 inverted microscope, and photographed. For cell adhesion assays mediated by Ac-GXGDSC (SEQ ID NO: 26), αIIbβ3 CHO K1 cells were incubated on a 5×4 circle (1 mm diameter) array for 1 hour with serum-free F-12K medium supplemented with cRGDFG (SEQ ID NO: 12) (300 μM) and 1× penicillin/streptomycin, followed by media exchange to F-12K medium supplemented with 10% FBS, 1× penicillin/streptomycin and cRGDFG (SEQ ID NO: 12) (300 μM. The substrates were washed with warm PBS, and adherent cells were immediately fixed and permeabilized with 4% formaldehyde and 0.5% Triton-X for 30 minutes. Fixed cells were stained with DAPI, visualized and photographed with a 20× objective as described. The number of adherent cells per field of view was counted using Image J software. Cells were counted in at least three fields for each circle, and each experiment was repeated 3 times. The degree of adhesion is reported as a percentage of cells that adhere relative to control experiments with the peptide Ac-GRGDSC (SEQ ID NO: 28).
To further assay the binding of peptide ligands to the […] integrin for XGD peptide ligands, an array was used to assess the adhesion of cells to peptides having the arginine residue substituted with each amino acid other than cysteine (e.g., A, D, E, F, G, H, I, K, L, M, N, P, Q, R, S, T, V, W, and Y). The library of Ac-GXGDSC (SEQ ID NO: 26) peptides was synthesized and immobilized in an array with each peptide occupying a 1 mm diameter region of the monolayer (FIG. 61). A suspension of αIIbβ3 CHO K1 cells was applied to the entire array and cells were allowed to attach to regions presenting the various peptides. The substrates were then rinsed and stained with DAPI, and the cells were counted to determine the relative efficiency of cell attachment to peptides in the library. […] Substitution with leucine and isoleucine were also active, though at a lower level.

αIIbβ3 CHO K1 cells [2] = assay: Immunostaining of cytoskeletal structure of αIIbβ3 CHO K1 cells adherent to model substrates; type: cell-based, human; settings: monolayers presenting the peptide; four hours; anti-vinculin, phalloidin, DAPI
Source text: αIIbβ3 CHO K1 cells were allowed to adhere and spread on substrates as described above. Substrates were washed gently with PBS, and fixed and permeabilized as described above. Cells were stained with monoclonal anti-vinculin IgG to visualize focal adhesions, phalloidin to visualize stress fibers and DAPI to visualize the nucleus. Substrates were rinsed thoroughly with PBS and mounted on microscope slides with Aqua Poly/Mount (PolySciences Inc.). Substrates were visualized with a 100× objective of a Zeiss Axiovert 200 inverted microscope, and photographed.
The assembly of focal adhesion and actin stress fibers of αIIbβ3 CHO K1 cells adhered to monolayers presenting GRGDSC (SEQ ID NO: 11), HHLGGAKQAGDVC (SEQ ID NO: 21) a mixture of both peptides, and adsorbed Fbg (FIGS. 3, E, F, G and H respectively) was compared. The αIIbβ3 CHO K1 cells were allowed to attach and spread on the monolayers for four hours, and then fixed the cells and probed with anti-vinculin IgG to visualize focal adhesions and with phalloidin-AF 488 to visualize actin stress fibers.

αIIbβ3 CHO K1 cells [3] = assay: Cell adhesion assay: αIIbβ3 CHO K1 cells on SAMs presenting immobilized peptides; type: cell-based, human; settings: 0.5% peptide SAM; in presence of 300 μM cRGDFG
Procedure: Monolayers were prepared as described (Houseman, et al., 2003). Glass coverslips were sonicated for 30 minutes in deionized ultrafiltered (DIUF) water and then 30 minutes in ethanol and then dried under a stream of nitrogen. Titanium (4 nm) and then gold (29 nm) were evaporated onto the coverslips using an electron beam evaporator (Boc Edwards) at a rate of 0.05-0.10 nm/s and at a pressure of 1 μTorr. The gold-coated coverslips were immersed in an ethanolic solution of maleimide-terminated disulfide (1%) and tri(ethylene glycol)-terminated disulfide (99%) overnight at room temperature. The total disulfide concentration was 1 mM. The substrates were washed with DIUF water, ethanol and then dried under a stream of nitrogen.
The pcDNA3.1 vectors that express human αIIb or β3, respectively, have been described previously (see e.g., Litvinov et al. (2006) Biochemistry, 45: 4957-4964). CHO K1, BHK 21 and HT1080 cells were purchased from ATCC. All CHO cells were cultured at 37° C. and 5% CO2 using F12K medium supplemented with 10% FBS and pen/strep. […] CHO K1 cells were transfected with αIIb and β3 cDNA with FuGENE following the supplier's protocol. Transfected cells were selected with 1 mg/mL zeocin and 1 mg/mL geneticin.
as §1
Monolayers were prepared that presented a mixture of maleimide groups and tri(ethylene glycol) groups with the former present at a density of 0.5% (relative to total alkanethiolate). The monolayers were treated with cysteine-terminated peptides to immobilize the ligands (FIG. 1A). In each case mass spectrometry was used to verify immobilization of the peptides in high yield (Su et al., 2002).
The adhesion and spreading of αIIbβ3 CHO K1 cells to monolayers presenting GRGDSC (SEQ ID NO: 11), HHLGGAKQAGDVC (SEQ ID NO: 21) and a mixture of both peptides was compared. […]

αIIbβ3 = target: T1, αIIbβ3 (Homo sapiens, UniProt P05106+P08514); settings: cited from earlier work
T1 construct: host or cells: platelets

platelets [4] = settings: cited from earlier work
platelets [5] = settings: cited from earlier work; remark: listed apart in the source
CHO K1 cells = assay: Blocking of CHO K1 cell attachment to GRGDSC monolayer; type: cell-based; settings: 300 μM
Source text: (§2) FIG. 2 depicts the results of FACS analyses and binding studies of a αIIbβ3 expressing CHO K1 cell line. […] Transfected αIIbβ3 CHO K1 cells express αIIbβ3 at the cell surface, as detected by anti-β3 and PAC-1 antibody (bottom) (the middle and right hand lanes show anti-β3 antibody and PAC-1 antibody binding, respectively). Panel B is a graph of the concentration of cRGDFG (SEQ ID NO: 12; where F is a D amino acid) versus adhesion of αIIbβ3 CHO K1 cells. The peptide cRGDFG (SEQ ID NO: 12), a cyclic peptide that specifically binds to α5 and αV integrins, inhibits CHO K1 cell adhesion to 0.5% GRGDSC (SEQ ID NO: 11) SAMs. Panels C-F are photomicrographs of cells adhering to GRGDSC (SEQ ID NO: 11).
(§3) CHO K1 cells were used that were transfected with the αIIbβ3 receptor, as described previously (Salsmann et al., 2005). Cells were transfected with pcDNA3.1 vectors that coded for αIIb and β3 using FuGENE6 and analyzed by FACS after labeling with the PAC-1 (anti-αIIbβ3) and H-96 (anti-β3) antibodies. Approximately 30% of the cells expressed the receptor (FIG. 2A). Because the CHO K1 cells also express αv and α5 integrins on their surfaces, adhesion experiments were performed in the presence of the cyclic peptide cRGDFG (SEQ ID NO: 12), where F is a D amino acid. […] All experiments that follow, unless stated otherwise, were performed in the presence of 300 μM cRGDFG (SEQ ID NO: 12).

αvβ3 = αvβ3 (Homo sapiens, UniProt P05106+P06756); settings: cited from earlier work
αIIbβ3 CHO K1 cells [6] = assay: Blocking of αIIbβ3 CHO K1 cell adhesion to GRGDSC monolayer; type: cell-based, human; settings: 300 μM
Source text: as §2, §3

Chain of αvβ3 (P06756 31-889 limits assumed): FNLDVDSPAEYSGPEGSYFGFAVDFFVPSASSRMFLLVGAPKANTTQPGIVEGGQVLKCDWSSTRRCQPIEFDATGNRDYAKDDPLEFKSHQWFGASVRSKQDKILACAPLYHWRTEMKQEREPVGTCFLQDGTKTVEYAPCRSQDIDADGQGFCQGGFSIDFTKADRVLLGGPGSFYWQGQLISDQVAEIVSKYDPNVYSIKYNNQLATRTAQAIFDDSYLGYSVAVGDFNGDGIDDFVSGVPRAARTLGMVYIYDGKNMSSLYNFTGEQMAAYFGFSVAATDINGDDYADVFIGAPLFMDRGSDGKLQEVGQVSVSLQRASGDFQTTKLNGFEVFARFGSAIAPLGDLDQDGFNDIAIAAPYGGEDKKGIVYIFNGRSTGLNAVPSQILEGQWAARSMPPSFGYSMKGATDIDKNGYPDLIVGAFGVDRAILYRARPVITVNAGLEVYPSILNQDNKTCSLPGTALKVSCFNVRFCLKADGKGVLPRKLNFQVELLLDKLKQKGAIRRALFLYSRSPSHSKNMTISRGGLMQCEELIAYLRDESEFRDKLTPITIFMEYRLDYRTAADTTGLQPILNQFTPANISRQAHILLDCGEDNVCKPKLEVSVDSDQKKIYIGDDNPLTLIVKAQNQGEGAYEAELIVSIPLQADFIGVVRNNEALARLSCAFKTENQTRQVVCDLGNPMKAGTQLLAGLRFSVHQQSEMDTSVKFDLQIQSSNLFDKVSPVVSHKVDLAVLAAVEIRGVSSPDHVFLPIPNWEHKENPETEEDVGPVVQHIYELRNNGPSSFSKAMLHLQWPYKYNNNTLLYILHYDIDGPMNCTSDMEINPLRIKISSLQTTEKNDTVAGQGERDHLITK
Chain of αvβ3 (P06756 891-1048 partner limits assumed): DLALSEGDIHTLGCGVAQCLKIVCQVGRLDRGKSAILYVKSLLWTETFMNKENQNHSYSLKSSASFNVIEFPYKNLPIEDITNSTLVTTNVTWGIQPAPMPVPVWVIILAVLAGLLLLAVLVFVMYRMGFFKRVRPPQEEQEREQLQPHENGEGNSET
Chain of αvβ3 (P05106 27-788): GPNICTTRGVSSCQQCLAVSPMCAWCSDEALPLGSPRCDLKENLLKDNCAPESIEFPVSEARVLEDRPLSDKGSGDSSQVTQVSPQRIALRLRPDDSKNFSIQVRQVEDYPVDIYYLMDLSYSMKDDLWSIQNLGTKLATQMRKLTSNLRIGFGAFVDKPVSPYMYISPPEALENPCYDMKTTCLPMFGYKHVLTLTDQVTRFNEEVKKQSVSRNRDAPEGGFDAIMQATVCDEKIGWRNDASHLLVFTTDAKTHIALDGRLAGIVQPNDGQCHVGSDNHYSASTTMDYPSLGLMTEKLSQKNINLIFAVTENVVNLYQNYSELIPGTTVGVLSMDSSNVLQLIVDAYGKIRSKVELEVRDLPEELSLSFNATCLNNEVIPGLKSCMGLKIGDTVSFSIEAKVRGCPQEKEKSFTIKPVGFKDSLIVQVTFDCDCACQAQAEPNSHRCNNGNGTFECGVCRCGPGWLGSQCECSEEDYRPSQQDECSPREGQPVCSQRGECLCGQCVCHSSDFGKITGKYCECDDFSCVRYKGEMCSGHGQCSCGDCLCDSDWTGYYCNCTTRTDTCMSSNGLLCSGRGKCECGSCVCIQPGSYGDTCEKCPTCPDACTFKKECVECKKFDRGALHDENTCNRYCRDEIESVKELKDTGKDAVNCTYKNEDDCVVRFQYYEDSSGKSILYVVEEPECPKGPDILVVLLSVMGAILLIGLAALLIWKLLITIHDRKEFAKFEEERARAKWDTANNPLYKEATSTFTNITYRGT

For Ac-GRGDSC (Ac-GRGDSC-NH2), the “cell adhesion on Ac-GXGDSC array” value (HT1080 cells) was “promoted significant cell adhesion”, the “cell adhesion on Ac-GXGDSC array” value (BHK 21 cells) was “promoted significant cell adhesion” and the “cell adhesion on Ac-GXGDSC array” value (CHO-K1 cells) was “promoted significant cell adhesion”. The “cell adhesion on Ac-GXGDSC array relative to Ac-GRGDSC” value (αIIbβ3 CHO K1 cells [1]) was “mediated αIIbβ3 CHO K1 cell adhesion”.

For “HHLGGAKQAGDVC (HHLGGAKQAGDVC-NH2) [Cys-terminated fibrinogen γ chain peptide immobilized on monolayer]”, the “cytoskeletal structure and focal adhesions of adherent cells” value (αIIbβ3 CHO K1 cells [2]) was “well-developed cytoskeletal structures and mature focal adhesions along the perimeter” and the “adhesion of αIIbβ3 CHO K1 cells to monolayer presenting the peptide” value (αIIbβ3 CHO K1 cells [3]) was “adhered”.

For “LGGAKQAGDV (not fully specified (C-terminus)) [γ-derived peptide]”, the “less potent in inhibiting PAC-1 binding to αIIbβ3” value (αIIbβ3; compared with its inhibition of Fbg binding / RGDS) is given as 2.5 fold, the “inhibition of A2A9 binding to platelets” value (platelets [4]) is given as “could inhibit the binding of A2A9 to platelets” and the “inhibition of Fbg binding to platelets” value (platelets [5]) is given as “inhibited Fbg binding to platelets with an affinity comparable to that of RGDS”.

For RGD, the “inhibition of A2A9 binding to platelets” value (platelets [4]) is listed as “not”.

For RGDS (synthesized peptide inhibitor), the “inhibition of PAC-1 binding” value (αIIbβ3) is listed as “blocked the binding of both PAC-1 and Fbg to platelets with equal potency” and the “inhibition of Fbg binding to platelets” value (platelets [5]) is listed as “blocked the binding of both PAC-1 and Fbg to platelets with equal potency”.

In the case of cRGDFG, the “block of attachment of CHO K1 cells to monolayer presenting GRGDSC” value (CHO K1 cells) is given as “could efficiently block the attachment”, the IC50 (αvβ3) is given as 1.6 nM and the “affinity for αvβ3 relative to αIIbβ3 integrin” value (αvβ3) is given as “approximately 1,400 fold”. The “effect on adhesion of αIIbβ3 CHO K1 cells to monolayer presenting GRGDSC” value (αIIbβ3 CHO K1 cells [6]) was “did not interfere with adhesion”.
